Data as given in US8834910B2, “Sustained release dispenser comprising two or more sex pheromone substances” (Shin-Etsu Chemical Co., Ltd., priority 2003, dated 2014).

Experiment: Vapor pressure by the gas flow method (OECD guideline)
Format: physicochemical
Conditions: head: 20° C.; text: gas flow method at 25° C.
Protocol: Chemical structure, relation with a target insect and carbon number of each component are listed in the pest control of the pear and peach in Japan. The vapor pressure was measured by the gas flow method at 25° C. according to the “Addendum to the OECD chemical test guideline, issues 7 and 8” (Adopted on Jul. 27, 1995).

| SMILES | Vapor pressure (20° C.) (Pa) |
| --- | --- |
| CC/C=C\CCCCCCCCOC(C)=O [Z-9-dodecenyl acetate] | 0.267 Pa |
| CCCC/C=C\CCCCCCCCOC(C)=O [Z-9-tetradecenyl acetate] | 0.100 Pa |
| CCC/C=C\CCCCCCCOC(C)=O [Z-8-dodecenyl acetate] | 0.267 Pa |
| CCC/C=C\CCCCCCCO [Z-8-dodecene-1-ol] | 0.980 Pa |
| CC/C=C\CCCCCCCCCCO [Z-11-tetradecene-1-ol] | 0.070 Pa |
| CCC(C)CCCCCCCCCOC(C)=O (stereo not drawn) [10-methyldodecyl acetate] | 0.186 Pa |
| C=CCCCCCCCCCCOC(C)=O [11-dodecenyl acetate] | 0.246 Pa |
| CC/C=C\CCCCCCCCCCOC(C)=O [Z-11-tetradecenyl acetate] | 0.100 Pa |
| CCCCCC/C=C\CCC(=O)CCCCCCCCC [Z-13-icosen-10-one] | 0.005 Pa |
